From ChEMBL document CHEMBL1148617, “Design, synthesis, and structure-activity relationships of 1-,3-,8-, and 9-substituted-9-deazaxanthines at the human A2B adenosine receptor” (J Med Chem, 2006)

Legend:
[1] = biological target: T1, Adenosine receptor A2b (Homo sapiens) (UniProt P29275); test: Displacement of [3H]DPCPX from recombinant human adenosine A2B receptor expressed in HEK293 cells at 0.01 uM
T1 sequence (whole entry): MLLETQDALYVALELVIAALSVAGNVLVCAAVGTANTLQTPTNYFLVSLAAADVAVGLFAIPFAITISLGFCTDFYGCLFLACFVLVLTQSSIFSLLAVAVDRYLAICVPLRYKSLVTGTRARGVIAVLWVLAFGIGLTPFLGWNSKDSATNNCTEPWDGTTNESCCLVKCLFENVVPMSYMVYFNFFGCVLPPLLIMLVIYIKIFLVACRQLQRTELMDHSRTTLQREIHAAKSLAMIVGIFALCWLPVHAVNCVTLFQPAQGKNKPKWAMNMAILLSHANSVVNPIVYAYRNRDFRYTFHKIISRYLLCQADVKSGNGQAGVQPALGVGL

Adenosine receptor A2a [2] = biological target: T2, Adenosine receptor A2a (Homo sapiens, UniProt P29274)
Description: Binding affinity to recombinant human adenosine A2A receptor

[3] = biological target: T1, Adenosine receptor A2b (Homo sapiens); test: Displacement of [3H]DPCPX from recombinant human adenosine A2B receptor expressed in HEK293 cells at 0.1 uM; assay type: cell-based
Adenosine receptor A2b = biological target: T3, Adenosine receptor A2b (Homo sapiens, UniProt P29275)
T3 sequence (P29275 whole entry): T1 sequence (whole entry)
Description: Binding affinity to recombinant human adenosine A2B receptor

Adenosine receptor A2a [4] = biological target: T2, Adenosine receptor A2a; test: Displacement of [3H]ZM-241385 from recombinant human adenosine A2A receptor expressed in HeLa cells at 0.1 uM

T2 sequence (P29274 whole entry): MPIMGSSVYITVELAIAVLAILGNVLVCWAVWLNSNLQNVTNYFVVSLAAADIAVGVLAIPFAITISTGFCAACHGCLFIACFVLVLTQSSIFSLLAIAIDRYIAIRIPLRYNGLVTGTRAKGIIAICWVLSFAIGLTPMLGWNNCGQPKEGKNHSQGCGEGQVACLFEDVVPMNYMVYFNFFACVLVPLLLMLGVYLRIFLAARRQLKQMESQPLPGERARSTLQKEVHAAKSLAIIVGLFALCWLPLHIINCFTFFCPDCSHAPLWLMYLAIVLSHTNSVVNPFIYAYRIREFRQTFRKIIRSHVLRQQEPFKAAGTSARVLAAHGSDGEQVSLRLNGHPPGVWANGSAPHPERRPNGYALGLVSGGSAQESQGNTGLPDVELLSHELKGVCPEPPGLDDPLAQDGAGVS

inhibition [1] | Ki (Adenosine receptor A2a [2]) | inhibition [3] | Ki (Adenosine receptor A2b) | inhibition (Adenosine receptor A2a [4]) | SMILES
52% | 81.3 nM | 82% | 6.92 nM | 30% | Cn1c(=O)c2[nH]c(-c3ccc(OCC(=O)Nc4ccc([N+](=O)[O-])cc4)cc3)cc2n(C)c1=O
10% | 45.7 nM | 45% | 145 nM | 35% | COc1cc(-c2cc3c([nH]2)c(=O)n(C)c(=O)n3C)ccc1OCC(=O)Nc1ccc(F)cc1
30% | 214 nM | 74% | 22.4 nM | 20% | Cn1c(=O)c2[nH]c(-c3ccc(OCC(=O)NC4CCc5ccccc54)cc3)cc2n(C)c1=O (stereo not given)
53% | 107 nM | 91% | 6.92 nM | 31% | CCCn1c(=O)c2[nH]c(-c3ccc(OCC(=O)Nc4ccc(OC(F)(F)F)cc4)cc3)cc2n(CCC)c1=O
24% | 56.2 nM | 79% | 34.7 nM | 51% | CCCn1c(=O)c2[nH]c(-c3ccc(OCC(=O)Nc4ccc(O)cc4)cc3)cc2n(CCC)c1=O
15% | 44.7 nM | 70% | 27.5 nM | 45% | CCCn1c(=O)c2[nH]c(-c3ccc(OCC(=O)Nc4ccc(OC)cc4)cc3)c(Cl)c2n(CCC)c1=O
22% | 20 nM | 80% | 12 nM | 52% | CCCn1c(=O)c2[nH]c(-c3ccc(OCC(=O)Nc4ccc(OC)cc4)cc3)cc2n(CCC)c1=O
50% | 17 nM | 97% | 8.91 nM | 32% | CCCn1c(=O)c2[nH]c(-c3ccc(OC(C)(C)C(=O)Nc4ccc(F)cc4)cc3)cc2n(CCC)c1=O
24% | 79.4 nM | 59% | 100 nM | 61% | CCCn1c(=O)c2[nH]c(-c3ccc(OCC(=O)c4c(NC(=O)O)n(C)c(=O)n(C)c4=O)cc3)cc2n(CCC)c1=O
15% | 81.3 nM | 78% | 38.9 nM | 32% | COc1cc(-c2cc3c([nH]2)c(=O)n(C)c(=O)n3C)ccc1OCC(=O)Nc1ccc(Br)cc1
10% | 204 nM | 35% | 166 nM | 32% | Cn1c(=O)c2[nH]c(-c3cccc(OCC(=O)Nc4ccccc4)c3)cc2n(C)c1=O
55% | 38.9 nM | 92% | 5.13 nM | 57% | CCCn1c(=O)c2[nH]c(-c3ccc(OC(C)C(=O)Nc4ccc(OC)cc4)cc3)cc2n(CCC)c1=O (stereo not given)
7% | 166 nM | 34% | 186 nM | 38% | Cn1c(=O)c2[nH]c(-c3ccc(OCC(=O)Nc4ccc(CCN)cc4)cc3)cc2n(C)c1=O
10% | 575 nM | 28% | 214 nM | 5% | COc1cc(-c2cc3c([nH]2)c(=O)n(C)c(=O)n3C)ccc1OCC(=O)Nc1ccc(C#N)cc1
36% | 16.2 nM | 81% | 15.1 nM | 43% | Cn1c(=O)c2[nH]c(-c3ccc(OCC(=O)Nc4nncs4)cc3)cc2n(C)c1=O
4% | 708 nM | 52% | 91.2 nM | 8% | CCCn1c(=O)c2[nH]c(-c3ccc(OCC(=O)Nc4ccc([N+](C)(C)C)cc4)cc3)cc2n(CCC)c1=O
10% | 40.7 nM | 69% | 27.5 nM | 54% | CCCn1c(=O)c2[nH]c(-c3ccc(OCC(=O)Nc4ccc(F)cc4)cc3)c(Cl)c2n(CCC)c1=O
17% | 89.1 nM | 80% | 22.9 nM | 28% | CCCn1c(=O)c2[nH]c(-c3ccc(OCC(=O)Nc4ccc(Cl)cc4)cc3)c(Cl)c2n(CCC)c1=O
23% | 95.5 nM | 63% | 25.1 nM | 31% | COc1cc(OCC(=O)Nc2ccc(F)cc2)ccc1-c1cc2c([nH]1)c(=O)n(C)c(=O)n2C
70% | 12 nM | 96% | 3.31 nM | 62% | CCCn1c(=O)c2[nH]c(-c3ccc(OCC(=O)Nc4ccc(F)cc4)cc3)cc2n(CCC)c1=O
41% | 107 nM | 84% | 10.7 nM | 50% | CCCn1c(=O)c2[nH]c(-c3ccc(OCC(=O)Nc4ccc(OC)nc4)cc3)cc2n(CCC)c1=O

inhibition [1] | Ki (Adenosine receptor A2a [2]) | inhibition [3] | Ki (Adenosine receptor A2b) | inhibition (Adenosine receptor A2a [4]) | SMILES
40% | 275 nM | 85% | 12.6 nM | 29% | CCCn1c(=O)c2[nH]c(-c3ccc(OCC(=O)Nc4ccc(C)cn4)cc3)cc2n(CCC)c1=O
48% | 35.5 nM | 93% | 7.76 nM | 90% | CCCn1c(=O)c2[nH]c(-c3ccc(N(C=O)CC(=O)Nc4ccc(Br)cc4)cc3)cc2n(CCC)c1=O
10% | 1020 nM | 67% | 55 nM | 14% | CN(Cc1ccccc1)C(=O)COc1ccc(-c2cc3c([nH]2)c(=O)n(C)c(=O)n3C)cc1
11% | 91.2 nM | 67% | 34.7 nM | 25% | CCCn1c(=O)c2[nH]c(-c3ccc(OCC(=O)Nc4ccc(C5=NC(C)(C)CO5)cc4)cc3)cc2n(CCC)c1=O
8% | 85.1 nM | 43% | 52.5 nM | 21% | CCCn1c(=O)c2[nH]c(-c3ccc(OCC(=O)Nc4ccc(C(C)=O)cc4)cc3)c(Cl)c2n(CCC)c1=O
57% | 66.1 nM | 94% | 5.62 nM | 47% | CCCn1c(=O)c2[nH]c(-c3ccc(OCC(=O)Nc4ccc(F)cc4)cc3)cc2n(C)c1=O
23% | 63.1 nM | 70% | 13.8 nM | 40% | CCCn1c(=O)c2[nH]c(-c3ccc(OCC(=O)Nc4ccc(NC(C)=O)cc4)cc3)cc2n(CCC)c1=O
27% | 120 nM | 80% | 13.8 nM | 29% | COCCCn1c(=O)n(C)c(=O)c2[nH]c(-c3ccc(OCC(=O)Nc4ccccc4)cc3)cc21
13% | 490 nM | 67% | 63.1 nM | 13% | CCCn1c(=O)c2[nH]c(-c3ccc(OCC(=O)Nc4ccc(C=O)cc4)cc3)cc2n(CCC)c1=O
6% | 245 nM | 46% | 60.3 nM | 20% | CCCn1c(=O)c2[nH]c(-c3ccc(OCC(=O)Nc4cccc(F)c4)cc3)c(Cl)c2n(CCC)c1=O
10% | 302 nM | 27% | 148 nM | 20% | COc1cc(-c2cc3c([nH]2)c(=O)n(C)c(=O)n3C)ccc1OCC(=O)Nc1ccccc1
51% | 79.4 nM | 94% | 7.94 nM | 47% | CCCn1c(=O)c2[nH]c(-c3ccc(OCC(=O)Nc4ccc(C(C)(C)C)cc4)cc3)cc2n(CCC)c1=O
30% | 158 nM | 80% | 19.5 nM | 57% | CCCn1c(=O)c2[nH]c(-c3ccc(OCC(=O)Nc4ccc(I)cc4)cc3)cc2n(CCC)c1=O
5% | 724 nM | 30% | 141 nM | 2% | CCCn1c(=O)c2[nH]c(-c3ccc(OCC(=O)Nc4ccccc4F)cc3)c(Cl)c2n(CCC)c1=O
15% | 67.6 nM | 73% | 44.7 nM | 45% | Cn1c(=O)c2[nH]c(-c3cccc(OCC(=O)Nc4ccc(Br)cc4)c3)cc2n(C)c1=O
57% | 15.5 nM | 96% | 4.68 nM | 93% | O=C(COc1ccc(-c2cc3c([nH]2)c(=O)n(CC2CC2)c(=O)n3CC2CC2)cc1)Nc1ccccc1
56% | 32.4 nM | 74% | 19.1 nM | 82% | CCCn1c(=O)c2[nH]c(-c3ccc(OCC(=O)Nc4ccccc4O)cc3)cc2n(CCC)c1=O
38% | 32.4 nM | 78% | 18.6 nM | 50% | CCCn1c(=O)c2[nH]c(-c3ccc(OCC(=O)Nc4ccc(C)cc4)cc3)c(Cl)c2n(CCC)c1=O
66% | 30.9 nM | 97% | 2.19 nM | 54% | CCCn1c(=O)c2[nH]c(-c3ccc(OCC(=O)Nc4ccc(Br)cc4)cc3)cc2n(CCC)c1=O
50% | 105 nM | 92% | 5.13 nM | 42% | CCCn1c(=O)c2[nH]c(-c3ccc(OC(C)C(=O)Nc4ccccc4)cc3)cc2n(CCC)c1=O (stereo not given)
